# Test results from ChEMBL document CHEMBL4330132, “5-Keto-3-cyano-2,4-diaminothiophenes as selective maternal embryonic leucine zipper kinase inhibitors” (Bioorg Med Chem Lett, 2019).
# Assays:
# [1] = target: Leukocyte tyrosine kinase receptor (Homo sapiens) (UniProt P29376); assay: Binding affinity to wild-type human partial length LTK (P422 to S744 residues) expressed in bacterial expression system assessed as residual binding level at 1 uM by Kinomescan method relative to control
# [2] = target: Ephrin type-B receptor 3 (Homo sapiens) (UniProt P54753); assay: Binding affinity to wild-type human partial length EPHB3 (Q599 to T928 residues) expressed in bacterial expression system assessed as residual binding level at 1 uM by Kinomescan method relative to control
# Chain of Ephrin type-B receptor 3 (Homo sapiens) (P54753 whole entry, the tested form may be a part): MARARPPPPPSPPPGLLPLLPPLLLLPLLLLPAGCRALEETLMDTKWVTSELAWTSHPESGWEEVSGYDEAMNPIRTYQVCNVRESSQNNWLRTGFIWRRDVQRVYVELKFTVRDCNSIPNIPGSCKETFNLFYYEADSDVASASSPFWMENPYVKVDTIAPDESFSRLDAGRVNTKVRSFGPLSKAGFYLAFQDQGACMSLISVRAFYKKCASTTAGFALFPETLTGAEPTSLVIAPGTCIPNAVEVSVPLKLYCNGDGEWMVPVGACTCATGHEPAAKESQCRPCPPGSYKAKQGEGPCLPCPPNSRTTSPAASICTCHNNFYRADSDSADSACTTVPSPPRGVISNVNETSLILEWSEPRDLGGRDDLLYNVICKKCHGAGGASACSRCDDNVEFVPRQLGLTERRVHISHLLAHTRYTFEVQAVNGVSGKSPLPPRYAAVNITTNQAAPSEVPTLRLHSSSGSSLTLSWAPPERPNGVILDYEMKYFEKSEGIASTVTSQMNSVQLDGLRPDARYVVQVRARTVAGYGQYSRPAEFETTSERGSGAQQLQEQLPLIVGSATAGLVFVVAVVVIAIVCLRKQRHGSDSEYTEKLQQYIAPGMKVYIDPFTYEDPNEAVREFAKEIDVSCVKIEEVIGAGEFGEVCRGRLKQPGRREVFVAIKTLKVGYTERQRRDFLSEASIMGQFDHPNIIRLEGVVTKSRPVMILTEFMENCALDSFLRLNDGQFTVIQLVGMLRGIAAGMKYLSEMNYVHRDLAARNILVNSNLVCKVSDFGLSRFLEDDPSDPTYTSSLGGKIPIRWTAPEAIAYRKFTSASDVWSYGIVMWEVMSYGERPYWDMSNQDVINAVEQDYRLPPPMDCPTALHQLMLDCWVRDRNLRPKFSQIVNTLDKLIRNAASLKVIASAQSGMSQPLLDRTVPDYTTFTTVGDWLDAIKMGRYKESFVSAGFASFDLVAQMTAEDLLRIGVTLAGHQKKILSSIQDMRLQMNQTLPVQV
# [3] = target: Dual specificity mitogen-activated protein kinase kinase 7 (Homo sapiens) (UniProt O14733); assay: Binding affinity to wild-type human full length MKK7 (M1 to R419 residues) expressed in mammalian expression system assessed as residual binding level at 1 uM by Kinomescan method relative to control
# [4] = target: Mitogen-activated protein kinase kinase kinase kinase 1 (Homo sapiens) (UniProt Q92918); assay: Binding affinity to wild-type human full length HPK1 (M1 to R799 residues) expressed in bacterial expression system assessed as residual binding level at 1 uM by Kinomescan method relative to control
# Chain of Mitogen-activated protein kinase kinase kinase kinase 1 (Homo sapiens) (Q92918 whole entry, looked up, the tested form may be a part): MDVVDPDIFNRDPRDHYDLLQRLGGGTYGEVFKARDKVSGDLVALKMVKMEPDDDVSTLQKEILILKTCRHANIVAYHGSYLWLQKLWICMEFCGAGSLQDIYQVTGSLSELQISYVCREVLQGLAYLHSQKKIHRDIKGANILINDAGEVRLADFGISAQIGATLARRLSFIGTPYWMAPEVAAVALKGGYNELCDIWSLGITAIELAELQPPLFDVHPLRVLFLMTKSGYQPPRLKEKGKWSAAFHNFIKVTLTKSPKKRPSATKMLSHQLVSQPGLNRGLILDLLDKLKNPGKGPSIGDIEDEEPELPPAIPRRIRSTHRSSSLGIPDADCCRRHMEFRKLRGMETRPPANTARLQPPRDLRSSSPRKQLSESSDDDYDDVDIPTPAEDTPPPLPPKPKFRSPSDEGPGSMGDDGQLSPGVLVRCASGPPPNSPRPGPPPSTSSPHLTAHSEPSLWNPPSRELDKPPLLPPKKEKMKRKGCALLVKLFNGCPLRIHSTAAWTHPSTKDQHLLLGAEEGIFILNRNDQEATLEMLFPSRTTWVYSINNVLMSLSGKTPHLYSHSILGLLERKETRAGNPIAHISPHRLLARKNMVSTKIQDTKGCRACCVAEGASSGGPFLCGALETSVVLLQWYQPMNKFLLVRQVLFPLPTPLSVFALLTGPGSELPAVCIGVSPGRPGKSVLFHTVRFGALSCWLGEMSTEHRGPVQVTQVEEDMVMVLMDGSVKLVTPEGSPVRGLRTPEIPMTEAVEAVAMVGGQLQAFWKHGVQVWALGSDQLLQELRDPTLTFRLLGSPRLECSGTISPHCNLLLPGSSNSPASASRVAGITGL
# [5] = target: Serine/threonine-protein kinase DCLK2 (Homo sapiens) (UniProt Q8N568); assay: Binding affinity to wild-type human partial length DCAMKL2 (K273 to V664 residues) expressed in bacterial expression system assessed as residual binding level at 1 uM by Kinomescan method relative to control
# [6] = target: Bone morphogenetic protein receptor type-2 (Homo sapiens) (UniProt Q13873); assay: Binding affinity to wild-type human partial length BMPR2 (R179 to Q526 residues) expressed in mammalian expression system assessed as residual binding level at 1 uM by Kinomescan method relative to control
# [7] = target: Mitogen-activated protein kinase 4 (Homo sapiens) (UniProt P31152); assay: Binding affinity to wild-type human partial length ERK4 (M1 to L365 residues) expressed in bacterial expression system assessed as residual binding level at 1 uM by Kinomescan method relative to control
# [8] = system: Epidermal growth factor receptor (Homo sapiens), P00533 [UNDEFINED MUTATION]; assay: Binding affinity to human partial length EGFR E746-A750del mutant expressed in bacterial expression system assessed as residual binding level at 1 uM by Kinomescan method relative to control
# [9] = target: MAP kinase-activated protein kinase 2 (Homo sapiens) (UniProt P49137); assay: Binding affinity to wild-type human partial length MAPKAPK2 (V48 to D345 residues) expressed in bacterial expression system assessed as residual binding level at 1 uM by Kinomescan method relative to control
# [10] = target: Interleukin-1 receptor-associated kinase 3 (Homo sapiens) (UniProt Q9Y616); assay: Binding affinity to wild-type human partial length IRAK3 (V147 to E596 residues) expressed in bacterial expression system assessed as residual binding level at 1 uM by Kinomescan method relative to control
# [11] = target: Serine/threonine-protein kinase MARK1 (Homo sapiens) (UniProt Q9P0L2); assay: Binding affinity to wild-type human partial length MARK1 (Q30 to T341 residues) expressed in bacterial expression system assessed as residual binding level at 1 uM by Kinomescan method relative to control
# [12] = target: Phosphatidylinositol 4-phosphate 5-kinase type-1 gamma (Homo sapiens) (UniProt O60331); assay: Binding affinity to wild-type human partial length PIP5K1C (M1 to T668 residues) expressed in mammalian expression system assessed as residual binding level at 1 uM by Kinomescan method relative to control
# [13] = target: Ephrin type-A receptor 5 (Homo sapiens) (UniProt P54756); assay: Binding affinity to wild-type human partial length EPHA5 (T627 to V930 residues) expressed in bacterial expression system assessed as residual binding level at 1 uM by Kinomescan method relative to control
# [14] = system: Epidermal growth factor receptor (Homo sapiens), P00533 [UNDEFINED MUTATION]; assay: Binding affinity to human partial length EGFR L747-S752del/P753S mutant expressed in bacterial expression system assessed as residual binding level at 1 uM by Kinomescan method relative to control
# [15] = system: Epidermal growth factor receptor (Homo sapiens), P00533 [L861Q]; assay: Binding affinity to human partial length EGFR L861Q mutant (R669 to V1011 residues) expressed in bacterial expression system assessed as residual binding level at 1 uM by Kinomescan method relative to control
# [16] = target: Peripheral plasma membrane protein CASK (Homo sapiens) (UniProt O14936); assay: Binding affinity to wild-type human partial length CASK (M1 to H315 residues) expressed in mammalian expression system assessed as residual binding level at 1 uM by Kinomescan method relative to control
# [17] = target: Serine/threonine-protein kinase D2 (Homo sapiens) (UniProt Q9BZL6); assay: Binding affinity to wild-type human partial length PRKD2 (A519 to E838 residues) expressed in bacterial expression system assessed as residual binding level at 1 uM by Kinomescan method relative to control
# [18] = target: Ephrin type-A receptor 3 (Homo sapiens) (UniProt P29320); assay: Binding affinity to wild-type human partial length EPHA3 (D604 to K889 residues) expressed in bacterial expression system assessed as residual binding level at 1 uM by Kinomescan method relative to control
# [19] = target: Serine/threonine-protein kinase SIK3 (Homo sapiens) (UniProt Q9Y2K2); assay: Binding affinity to wild-type human partial length QSK (A90 to L395 residues) expressed in mammalian expression system assessed as residual binding level at 1 uM by Kinomescan method relative to control
# [20] = target: MAP kinase-activated protein kinase 5 (Homo sapiens) (UniProt Q8IW41); assay: Binding affinity to wild-type human partial length MAPKAPK5 (M1 to D322 residues) expressed in mammalian expression system assessed as residual binding level at 1 uM by Kinomescan method relative to control
# Chain of MAP kinase-activated protein kinase 5 (Homo sapiens) (Q8IW41 whole entry, the tested form may be a part): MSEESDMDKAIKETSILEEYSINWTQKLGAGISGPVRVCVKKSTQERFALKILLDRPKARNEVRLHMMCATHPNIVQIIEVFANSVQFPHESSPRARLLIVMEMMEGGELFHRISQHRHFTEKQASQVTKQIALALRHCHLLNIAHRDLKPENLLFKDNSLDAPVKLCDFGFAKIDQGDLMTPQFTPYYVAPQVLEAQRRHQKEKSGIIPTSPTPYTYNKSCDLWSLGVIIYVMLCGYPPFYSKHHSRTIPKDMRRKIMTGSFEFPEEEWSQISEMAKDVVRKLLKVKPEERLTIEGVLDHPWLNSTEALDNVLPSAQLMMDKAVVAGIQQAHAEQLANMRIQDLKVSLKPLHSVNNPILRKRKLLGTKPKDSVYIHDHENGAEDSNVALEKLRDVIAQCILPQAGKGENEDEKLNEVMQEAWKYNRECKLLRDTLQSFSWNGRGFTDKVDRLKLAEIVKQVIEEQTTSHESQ
# [21] = target: Phosphatidylinositol 4-phosphate 3-kinase C2 domain-containing subunit beta (Homo sapiens) (UniProt O00750); assay: Binding affinity to wild-type human partial length PIK3C2B (M1 to L1634 residues) expressed in mammalian expression system assessed as residual binding level at 1 uM by Kinomescan method relative to control
# Chain of Phosphatidylinositol 4-phosphate 3-kinase C2 domain-containing subunit beta (Homo sapiens) (O00750 whole entry, the tested form may be a part): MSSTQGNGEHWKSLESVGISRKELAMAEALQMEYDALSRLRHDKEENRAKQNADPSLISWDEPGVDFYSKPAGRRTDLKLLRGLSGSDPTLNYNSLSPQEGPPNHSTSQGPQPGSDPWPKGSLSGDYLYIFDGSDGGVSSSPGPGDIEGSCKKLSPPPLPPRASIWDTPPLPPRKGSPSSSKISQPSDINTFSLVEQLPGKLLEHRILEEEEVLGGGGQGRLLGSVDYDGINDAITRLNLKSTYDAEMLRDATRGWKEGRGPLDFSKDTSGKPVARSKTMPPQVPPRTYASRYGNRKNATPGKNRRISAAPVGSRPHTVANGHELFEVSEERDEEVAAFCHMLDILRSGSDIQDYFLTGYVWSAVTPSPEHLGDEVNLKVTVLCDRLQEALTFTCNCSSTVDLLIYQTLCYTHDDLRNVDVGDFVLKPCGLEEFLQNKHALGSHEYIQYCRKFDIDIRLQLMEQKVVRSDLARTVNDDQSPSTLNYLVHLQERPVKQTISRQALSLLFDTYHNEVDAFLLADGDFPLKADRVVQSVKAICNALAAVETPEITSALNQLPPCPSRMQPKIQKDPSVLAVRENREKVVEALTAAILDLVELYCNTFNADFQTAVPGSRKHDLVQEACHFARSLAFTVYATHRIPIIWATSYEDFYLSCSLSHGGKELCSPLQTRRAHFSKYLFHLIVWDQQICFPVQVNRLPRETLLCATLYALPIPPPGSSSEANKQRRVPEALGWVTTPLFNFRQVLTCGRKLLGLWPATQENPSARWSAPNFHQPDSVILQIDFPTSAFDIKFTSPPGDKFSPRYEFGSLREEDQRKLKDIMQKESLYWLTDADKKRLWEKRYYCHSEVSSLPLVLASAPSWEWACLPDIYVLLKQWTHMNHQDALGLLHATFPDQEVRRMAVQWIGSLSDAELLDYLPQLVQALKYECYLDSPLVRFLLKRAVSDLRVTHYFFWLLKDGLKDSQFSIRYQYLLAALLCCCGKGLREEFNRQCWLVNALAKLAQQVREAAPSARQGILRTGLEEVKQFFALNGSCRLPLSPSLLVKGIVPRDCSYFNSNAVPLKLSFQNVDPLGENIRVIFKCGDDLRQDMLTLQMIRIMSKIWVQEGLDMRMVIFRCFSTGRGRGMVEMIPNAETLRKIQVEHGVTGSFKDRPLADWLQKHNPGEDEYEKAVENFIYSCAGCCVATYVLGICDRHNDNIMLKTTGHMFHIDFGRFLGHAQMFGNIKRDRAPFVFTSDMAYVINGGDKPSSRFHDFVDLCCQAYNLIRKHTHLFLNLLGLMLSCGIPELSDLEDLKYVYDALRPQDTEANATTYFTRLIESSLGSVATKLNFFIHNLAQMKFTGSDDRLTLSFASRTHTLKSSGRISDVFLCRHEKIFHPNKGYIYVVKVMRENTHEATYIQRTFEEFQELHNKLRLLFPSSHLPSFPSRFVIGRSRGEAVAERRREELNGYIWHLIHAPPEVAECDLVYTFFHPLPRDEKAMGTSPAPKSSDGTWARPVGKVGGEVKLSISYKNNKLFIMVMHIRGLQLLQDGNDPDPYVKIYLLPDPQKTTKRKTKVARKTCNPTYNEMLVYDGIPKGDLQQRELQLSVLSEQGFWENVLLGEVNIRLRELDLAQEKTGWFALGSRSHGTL
# [22] = target: Cyclin-dependent kinase 8 (Homo sapiens) (UniProt P49336); assay: Binding affinity to wild-type human partial length CDK8 (M1 to T360 residues) expressed in bacterial expression system assessed as residual binding level at 1 uM by Kinomescan method relative to control
# [23] = system: Tyrosine-protein kinase ABL1 (Homo sapiens), P00519 [F317I]; assay: Binding affinity to human non-phosphorylated ABL1 F317I mutant (S229 to K512 residues) expressed in mammalian expression system assessed as residual binding level at 1 uM by Kinomescan method relative to control
# [24] = system: Tyrosine-protein kinase ABL1 (Homo sapiens), P00519 [Y253F]; assay: Binding affinity to human phosphorylated ABL1 Y253F mutant (S229 to K512 residues) expressed in mammalian expression system assessed as residual binding level at 1 uM by Kinomescan method relative to control
# [25] = target: Serine/threonine-protein kinase 36 (Homo sapiens) (UniProt Q9NRP7); assay: Binding affinity to wild-type human partial length STK36 (M1 to T271 residues) expressed in bacterial expression system assessed as residual binding level at 1 uM by Kinomescan method relative to control
# Chain of Leukocyte tyrosine kinase receptor (Homo sapiens) (P29376 whole entry, the tested form may be a part): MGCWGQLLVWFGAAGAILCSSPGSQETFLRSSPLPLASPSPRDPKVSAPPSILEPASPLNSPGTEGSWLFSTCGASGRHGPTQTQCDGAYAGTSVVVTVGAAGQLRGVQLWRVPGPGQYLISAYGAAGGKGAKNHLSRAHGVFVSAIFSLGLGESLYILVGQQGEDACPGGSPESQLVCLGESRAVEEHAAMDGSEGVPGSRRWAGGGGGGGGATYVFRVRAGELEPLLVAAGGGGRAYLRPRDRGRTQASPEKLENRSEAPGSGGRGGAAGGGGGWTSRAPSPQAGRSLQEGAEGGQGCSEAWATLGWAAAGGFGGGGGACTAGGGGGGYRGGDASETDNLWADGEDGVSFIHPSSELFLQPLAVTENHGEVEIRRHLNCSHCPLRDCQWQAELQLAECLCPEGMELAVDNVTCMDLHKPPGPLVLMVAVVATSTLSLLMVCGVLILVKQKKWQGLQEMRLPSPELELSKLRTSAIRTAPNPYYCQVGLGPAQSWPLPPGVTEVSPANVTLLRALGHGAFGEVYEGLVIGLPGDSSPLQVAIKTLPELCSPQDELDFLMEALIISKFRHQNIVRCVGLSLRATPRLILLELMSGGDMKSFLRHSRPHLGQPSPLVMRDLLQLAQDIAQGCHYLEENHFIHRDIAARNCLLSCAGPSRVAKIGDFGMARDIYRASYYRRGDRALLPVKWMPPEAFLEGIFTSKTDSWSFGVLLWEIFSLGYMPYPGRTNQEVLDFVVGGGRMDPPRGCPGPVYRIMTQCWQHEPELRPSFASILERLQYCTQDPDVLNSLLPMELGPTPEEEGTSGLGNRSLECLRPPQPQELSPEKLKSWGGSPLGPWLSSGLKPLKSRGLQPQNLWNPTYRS
smiles,measurement,setting,value
CC(C)Nc1sc(C(=O)c2ccc(Cl)s2)c(N)c1C#N,Activity,[1],100%
same,Activity,[2],94%
same,Activity,[3],100%
same,Activity,[4],100%
same,Activity,[5],100%
same,Activity,[6],99%
same,Activity,[7],89%
same,Activity,[8],93%
same,Activity,[9],83%
same,Activity,[10],86%
same,Activity,[11],67%
same,Activity,[12],86%
same,Activity,[13],100%
same,Activity,[14],82%
same,Activity,[15],96%
same,Activity,[16],100%
same,Activity,[17],100%
same,Activity,[18],72%
same,Activity,[19],100%
same,Activity,[20],91%
same,Activity,[21],100%
same,Activity,[22],84%
same,Activity,[23],100%
same,Activity,[24],100%
same,Activity,[25],88%
